Where two headings read alike, the source gives them in different places. Where only a bound is given, the exact number is not on record here.

The subject of experiment [1] is Mycosphaerella graminicola; Anamorph: Septoria tritici; Bayer Code SEPTTR (standard laboratory isolate, SI SEPTTR). Briefly: Type A (high volume) assay, leaf blotch of wheat, standard laboratory SEPTTR isolate (SI SEPTTR). It is filed as in vivo, Mycosphaerella graminicola on wheat plants (variety Yuma). The settings on record: Zymoseptoria tritici, standard laboratory isolate, high volume, 50 ppm, wheat (Yuma). On the procedure: Example A: Evaluation of Fungicidal Activity: Leaf Blotch of Wheat (Mycosphaerella graminicola; Anamorph: Septoria tritici; Bayer Code SEPTTR)
For Type A assays, technical grades of the experimental fungicides in Table 4 below were dissolved in acetone, and then mixed with nine volumes of water containing 110 ppm Triton X-100. The fungicide solutions were applied onto wheat seedlings using an automated booth sprayer. For Type B assays, emulsifiable concentrate (EC) formulations of technical grades of the experimental fungicides in Table 4 below were prepared at 10% (w/v), and then mixed with 150 volumes of 0.1% Trycol 5941. These solutions were applied onto wheat seedlings using an automated track sprayer at 200 L/ha. All sprayed plants were allowed to air dry prior to further handling.
Wheat plants (variety Yuma) were grown from seed in a greenhouse in 50% mineral soil/50% soil-less Metro mix until the first leaf was fully emerged, with 7-10 seedlings per pot. Prior to or after application of experimental fungicides, plants were inoculated either with spores of a standard laboratory SEPTTR isolate (SI SEPTTR) or with spores from a SEPTTR field isolate collected from Wellsbourne, England in 2012 (FI SEPTTR). After inoculation the plants were kept for 3 days at 20° C. in 100% relative humidity (one day in a dark dew chamber followed by two days in a lighted dew chamber). Plants were then transferred to a 20° C. greenhouse for disease development. When disease symptoms were fully expressed on untreated plants, infection levels on treated plants were assessed on a scale of 0 to 100 percent disease severity. Percent disease control was calculated using the ratio of disease severity on treated plants relative to untreated plants.

A short description of experiment [2]: Type B (low volume, EC formulation, track sprayer 200 L/ha) assay, leaf blotch of wheat, SEPTTR field isolate (FI SEPTTR). Format: in vivo, Mycosphaerella graminicola on wheat plants (variety Yuma). The settings on record: Zymoseptoria tritici, 72 h, field isolate, low volume EC, 100 g/ha, wheat (Yuma). A digest of the protocol:
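Wheat seedlings (Yuma, first leaf emerged) sprayed with acetone/Triton X-100 solutions (Type A) or 10% EC diluted in 0.1% Trycol at 200 L/ha (Type B), inoculated before or after spraying. Inoculated plants held 3 days at 20 °C, 100% RH, then greenhouse; % disease control from severity versus untreated plants.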

The mark [3] stands for this setting: 24 h, 1 Day Protectant, read-out: Disease Control, SI SEPTTR Type A Assay (50 ppm) 1 DP.
Setting [4] is: 72 h, 3 Day Curative, read-out: Disease Control, SI SEPTTR Type A Assay (50 ppm) 3 DC.

`CC(C)(C)C(O)(c1cncnc1)c1ccc(-c2ccc(C#N)nc2)cn1` (centres unmarked) [Compound 108]: in experiment [1] (setting [3]), the pest or weed control at 50 ppm fell in the range of 60 to 79%.
Regarding `OC(C#CC1CC1)(c1cncnc1)c1ccc(Oc2ccc(Cl)cc2)cn1` (centres unmarked) [Compound 40], the results for the pest or weed control at 50 ppm in experiment [1] (setting [3]) and in experiment [1] (setting [4]) were 80 to 100% and 60 to 79%, respectively.
`OC(Cc1ccc(F)cc1)(c1cncnc1)c1ccc(-c2ccc(OC(F)(F)F)cc2)cn1` (centres unmarked) [Compound 136]: the pest or weed control at 50 ppm in experiment [1] (setting [3]) was 80 to 100%.
With `CC(C)C(O)(c1cncnc1)c1ccc(Oc2ccc(C(F)(F)F)cn2)cn1` (centres unmarked) [Compound 58], the pest or weed control at 50 ppm was in the range of 60 to 79% in experiment [1] (setting [3]) and 80 to 100% in experiment [1] (setting [4]).
In the case of `OC(c1cncnc1)(c1ccc(-c2ccc(Cl)cc2)cn1)C1CC1` (centres unmarked) [Compound 66], in experiment [1] (setting [3]), the pest or weed control at 50 ppm fell in the range of 80 to 100%.
Consider `Cc1ccc(Oc2ccc(C(O)(C#CC(C)(C)C)c3cncnc3)nc2)nc1` (centres unmarked) [Compound 50], for which the pest or weed control at 50 ppm was less than 40% in experiment [1] (setting [3]) and 60 to 79% in experiment [1] (setting [4]).
On to `CC(C)(C)C(O)(c1cncnc1)c1ccc(-c2cnc3ccccc3c2)cn1` (centres unmarked) [Compound 127], for which the pest or weed control at 50 ppm in experiment [1] (setting [3]) lay in the range of 80 to 100%.
With `OC(CCc1ccc(Cl)cc1F)(Cn1cnnn1)c1ccc(Oc2ccc(C(F)(F)F)cn2)cn1` (centres unmarked) [Compound 12], the pest or weed control at 50 ppm was 80 to 100% in experiment [1] (setting [3]) and less than 40% in experiment [1] (setting [4]).
Regarding `CC(C)C(O)(c1cncnc1)c1ccc(Oc2ccc(Cl)nc2)cn1` (centres unmarked) [Compound 10], the pest or weed control at 50 ppm in experiment [1] (setting [3]) and in experiment [1] (setting [4]) was 80 to 100% each time.
In the case of `CCC(O)(c1cncnc1)c1ccc(Oc2ccc(OC(F)(F)F)cc2)cn1` (centres unmarked) [Compound 32], the pest or weed control at 50 ppm in experiment [1] (setting [3]) and in experiment [1] (setting [4]) was 80 to 100% in each case.
Consider `OC(Cc1ccc(Cl)cc1Cl)(c1cncnc1)c1ccc(-c2ccc(OC(F)(F)F)cc2)cn1` (centres unmarked) [Compound 142], for which the pest or weed control at 50 ppm in experiment [1] (setting [3]) lay within 80 to 100%.
In the case of `CC(C)(C)C#CC(O)(c1cncnc1)c1ccc(Oc2ccc(C(F)(F)F)cc2)cn1` (centres unmarked) [Compound 33], the pest or weed control at 50 ppm in experiment [1] (setting [3]) is 80 to 100%; in experiment [1] (setting [4]), 60 to 79%.
On to `CC(C)C(O)(Cn1cnnn1)c1ccc(Oc2ccc(C#N)cc2)cn1` (centres unmarked) [Compound 24], for which the pest or weed control at 50 ppm in experiment [1] (setting [3]) and in experiment [1] (setting [4]) was less than 40% each time.
For `OC(C#CC1CC1)(c1cncnc1)c1ccc(Oc2ccc(C(F)(F)F)cc2)cn1` (centres unmarked) [Compound 47], the pest or weed control at 50 ppm in experiment [1] (setting [3]) was in the range of 40 to 59%; in experiment [1] (setting [4]) it was 80 to 100%.
The like results for `CC(C)(C)C#CC(O)(c1cncnc1)c1ccc(Oc2ccc(Cl)cn2)cn1` (centres unmarked) [Compound 49] were, in that order, 60 to 79% and 80 to 100%.
As for `CCC(O)(c1cncnc1)c1ccc(Oc2cccc(Cl)n2)cn1` (centres unmarked) [Compound 70], the pest or weed control at 50 ppm in experiment [1] (setting [3]) lay within 40 to 59%.
Still for that read-out and setting: the result for `CC(C)(C)C(O)(c1cncnc1)c1ccc(-c2ccc(CC#N)cc2)cn1` (centres unmarked) [Compound 153] reads 80 to 100%; that for `CCOc1ccc(-c2ccc(C(O)(c3cncnc3)C(C)(C)C)nc2)cc1` (centres unmarked) [Compound 111], 60 to 79%; that for `CC(C)(C)C(O)(c1cncnc1)c1ccc(-c2cnc(C(F)(F)F)cc2C(F)(F)F)cn1` (centres unmarked) [Compound 128], 80 to 100%.
For the compound `COc1ncncc1C(O)(c1ccc(-c2ccc(C(F)(F)F)nc2)cn1)C(C)(C)C` (centres unmarked) [Compound 172], the pest or weed control at 50 ppm in experiment [1] (setting [3]) was in the range of 80 to 100%.
Still for that read-out and setting: to `CC(C)(C)C(O)(c1cccnc1)c1ccc(-c2ccc(OC(F)(F)F)cc2F)cn1` (centres unmarked) [Compound 147] belongs 80 to 100%.
On to `OC(CCc1ccc(F)cc1F)(Cn1cnnn1)c1ccc(Oc2ccc(Cl)cn2)cn1` (centres unmarked) [Compound 2, 2-(5-((5-chloropyridin-2-yl)oxy)pyridin-2-yl)-4-(2,4-difluorophenyl)-1-(1H-tetrazol-1-yl)butan-2-ol], for which the pest or weed control at 50 ppm in experiment [1] (setting [3]) is 80 to 100%; in experiment [1] (setting [4]), less than 40%.
The like results for `N#Cc1ccc(Oc2ccc(C(O)(Cn3cnnn3)C(F)(F)c3ccc(F)cc3F)nc2)cc1` (centres unmarked) [Compound 1, 4-((6-(1-(2,4-difluorophenyl)-1,1-difluoro-2-hydroxy-3-(1H-tetrazol-1-yl)propan-2-yl)pyridin-3-yl)oxy)benzonitrile] were, in that order, less than 40% and 40 to 59%.
The like results for `CC(C)C(O)(c1cncnc1)c1ccc(Oc2ccc(C#N)cc2)cn1` (centres unmarked) [Compound 16] were, in that order, 80 to 100% and 80 to 100%.
For `CC(C)(C)C#CC(O)(c1cncnc1)c1ccc(Oc2ccc(Cl)nc2)cn1` (centres unmarked) [Compound 35], the results for the pest or weed control at 50 ppm in experiment [1] (setting [3]) and in experiment [1] (setting [4]) were less than 40% and 60 to 79%, respectively.
`COc1ncncc1C(O)(c1ccc(-c2ccc(C(C)(C)C)cc2)cn1)C(C)(C)C` (centres unmarked) [Compound 168]: the pest or weed control at 50 ppm in experiment [1] (setting [3]) lay within 60 to 79%.
For the compound `CN(C)c1ccc(-c2ccc(C(O)(c3cncnc3)C(C)(C)C)nc2)cc1` (centres unmarked) [Compound 100], in experiment [1] (setting [3]), the pest or weed control at 50 ppm lay in the range of 80 to 100%.
Consider `CCC(O)(c1cncnc1)c1ccc(Oc2ccc(C(F)(F)F)cc2)cn1` (centres unmarked) [Compound 34], for which the pest or weed control at 50 ppm was 80 to 100% in experiment [1] (setting [3]) and 60 to 79% in experiment [1] (setting [4]).
The like results for `OC(C#CC1CC1)(c1cncnc1)c1ccc(Oc2ccc(OC(F)(F)F)cc2)cn1` (centres unmarked) [Compound 48] were, in that order, less than 40% and less than 40%.
Regarding `Cc1cncc(C(O)(c2ccc(-c3ccc(OC(F)(F)F)cc3)cn2)C(C)(C)C)c1` (centres unmarked) [Compound 144], the pest or weed control at 50 ppm in experiment [1] (setting [3]) lay in the range of 80 to 100%.
For the compound `OC(c1cncnc1)(c1ccc(Oc2ccc(OC(F)(F)F)cc2)cn1)C1CC1` (centres unmarked) [Compound 8], the pest or weed control at 50 ppm in experiment [1] (setting [3]) and in experiment [1] (setting [4]) was 80 to 100% each time.
On to `C=CCCC(O)(c1cncnc1)c1ccc(Oc2ccc(Cl)cc2)cn1` (centres unmarked) [Compound 21, 1-(5-(4-chlorophenoxy)pyridine-2-yl)-1-(pyrimidin-5-yl)pent-4-en-1-ol], for which the pest or weed control at 50 ppm in experiment [1] (setting [3]) and in experiment [1] (setting [4]) was 80 to 100% throughout.
Regarding `COc1ccc(-c2ccc(C(O)(c3cncnc3OC)C(C)(C)C)nc2)cn1` (centres unmarked) [Compound 171], the pest or weed control at 50 ppm in experiment [1] (setting [3]) lay in the range of 80 to 100%.
Turning to `CC(C)(C)C#CC(O)(c1cncnc1)c1ccc(Oc2ccc(Cl)cc2)cn1` (centres unmarked) [Compound 29, 1-(5-(4-chlorophenoxy)pyridin-2-yl)-4,4-dimethyl-1-(pyrimidin-5-yl)pent-2-yn-1-ol], the pest or weed control at 50 ppm in experiment [1] (setting [3]) and in experiment [1] (setting [4]) was 80 to 100% throughout.
`OC(Cc1cncnc1)(c1ccc(-c2ccc(Cl)cc2)cn1)C(F)(F)F` (centres unmarked) [Compound 46, 2-(5-(4-chlorophenyl)pyridin-2-yl)-1,1,1-trifluoro-3-(pyrimidin-5-yl)propan-2-ol]: the pest or weed control at 50 ppm in experiment [1] (setting [3]) and in experiment [1] (setting [4]) was 80 to 100% throughout.
For `CC(C)C(O)(c1cncnc1)c1ccc(Oc2cccc(Cl)n2)cn1` (centres unmarked) [Compound 69], the pest or weed control at 50 ppm in experiment [1] (setting [3]) lay in the range of 80 to 100%.
Turning to `CCC(O)(c1cncnc1)c1ccc(Oc2ccc(Cl)nc2)cn1` (centres unmarked) [Compound 36], the pest or weed control at 50 ppm in experiment [1] (setting [3]) was less than 40%; in experiment [1] (setting [4]), 60 to 79%.
For the compound `CC(C)(C)C(O)(c1cncnc1)c1ccc(-c2ccsc2)cn1` (centres unmarked) [Compound 110], the pest or weed control at 50 ppm in experiment [1] (setting [3]) is 80 to 100%.
Regarding `CC(C)C(O)(c1cncnc1)c1ccc(Oc2ccc(Cl)cc2)cn1` (centres unmarked) [Compound 6], the pest or weed control at 50 ppm in experiment [1] (setting [3]) and in experiment [1] (setting [4]) was 80 to 100% in each case.
As for `CC(C)(C)C(O)(c1cncnc1)c1ccc(-c2cncnc2)cn1` (centres unmarked) [Compound 113], the pest or weed control at 50 ppm in experiment [1] (setting [3]) was in the range of 60 to 79%.
Still for that read-out and setting: the result for `COc1ncncc1C(O)(c1ccc(-c2ccc(C#N)cc2)cn1)C(C)(C)C` (centres unmarked) [Compound 170] reads 80 to 100%; that for `CC(C)C(O)(c1ccc(-c2ccc(OC(F)(F)F)cc2)cn1)c1cncs1` (centres unmarked) [Compound 87], 80 to 100%.
Take `OC(Cc1ccc(Cl)cc1F)(Cn1cnnn1)c1ccc(-c2ccc(OC(F)(F)F)cc2)cn1` (centres unmarked) [Compound 28, 1-(4-chloro-2-fluorophenyl)-3-(1H-tetrazol-1-yl)-2-(5-(4-(trifluoromethoxy)phenyl)pyridin-2-yl)propan-2-ol]: the pest or weed control at 50 ppm is 60 to 79% in experiment [1] (setting [3]) and 40 to 59% in experiment [1] (setting [4]).
Turning to `CC(C)(C)C(O)(c1cncc(F)c1)c1ccc(-c2ccc(OC(F)(F)F)cc2)cn1` (centres unmarked) [Compound 202], the pest or weed control at 100 g/ha in experiment [2] (3 Day Curative, read-out: Disease Control, FI SEPTTR Type B Assay (100 g/ha) 3 DC) is 60 to 79%; in experiment [2] (3 Day Protectant, read-out: Disease Control, FI SEPTTR Type B Assay (100 g/ha) 3 DP), 60 to 79%.

The values above are taken from patent US10167300B2, “Metalloenzyme inhibitor compounds as fungicides” (priority 2014, dated 2019).
